Measured values published in patent US20190060298A1, “NEW DRUG FOR THE TREATMENT AND/OR PREVENTION OF DEPRESSIVE DISORDERS” (SORBONNE UNIVERSITE, priority 2013, published 2019).
Entries after “also recorded” stand apart in the source; their conditions may differ.

Columns and labels:
[1] = test system: Nrf2; assay: Nrf2 translocation in hippocampal HT22 cells; type: cell-based; conditions: 30 min, quercetin 10 μM; for nuclear Nrf2 translocation: BDNF 100 ng/ml, 7,8-DHF 10 μM
Description: (§1) Hippocampi were homogenized in ice-cold buffer A (10 mM Hepes, 150 mM NaCl, 1 mM EDTA, protease inhibitor cocktail [5 μl/ml] and phosphatase inhibitor cocktail [10 μl/ml]) and Nonidet P-40 (0.5%) was then added. After 10 min on ice, homogenates were centrifuged (1,200×g, 10 min, 4° C.). Supernatants were saved as the cytoplasmic fraction. Pellets were washed in ice-cold buffer A and sedimented by centrifugation at 1,200×g for 10 min at 4° C. Nuclear yield and integrity were checked by Giemsa staining and microscopy. Nuclei were resuspended in ice-cold buffer B (20 mM Hepes, 420 mM NaCl, 1.2 mM MgCl2, 0.2 mM EDTA, 25% glycerol, 0.5 mM DTT, protease inhibitor cocktail [5 μl/ml] and phosphatase inhibitor cocktail [10 μl/ml]). Samples were sonicated (15 s, 4° C.) and vortexed every 5 min for 20 min. The cytoplasmic and nuclear fractions were centrifuged at 20,000×g, for 30 min at 4° C. Supernatants were rapidly frozen in liquid nitrogen and stored at −80° C. A similar protocol was used for cell nuclear and cytosolic extracts.
40 μg of nuclear or cytosolic protein (or 20 μg for cell experiments) was resolved by SDS-polyacrylamide gel electrophoresis in a 12% polyacrylamide gel. The bands were transferred to nitrocellulose or PVDF membranes (Invitrogen, France) for immunoblotting according to standard procedures. We used the following antibody dilutions: 1:250 for rabbit polyclonal antibodies against Nrf2 (Santa Cruz Biotechnology, France), 1:500 for rabbit polyclonal antibodies against Keap1 (Santa Cruz Biotechnology) and 1:5000 for rabbit polyclonal antibodies against aconitase 2 (Gene Tex, France). A dilution of 1:10,000 was used for the fluorescent IRDye® 800CW secondary antibody (ScienceTec, Paris, France). Membranes were also probed with a mouse monoclonal antibody against GAPDH or a mouse monoclonal antibody against beta-actin (dilutions of 1:10,000 and 1:1,000, respectively, Sigma-Aldrich, France) and with the IRDye® 680CW secondary antibody from ScienceTec (1:10,000), to correct for protein loading. Images were acquired with the Odyssey® infrared imaging system (LI-COR Biosciences). Protein bands were quantified with Odyssey® software (version 3.0, LI-COR Biosciences). For SOD1, Prx2 and PrxSO2/SO3 analysis, we used the following antibody dilutions: 1:1000 for rabbit polyclonal antibodies against SOD (Euromedex), 1:2000 for rabbit polyclonal antibodies against PeroxiredoxinSO2/SO3 (Abcam), 1:1000 for rabbit polyclonal antibodies against Peroxiredoxin2 (Abcam). Horseradish peroxidase-conjugated secondary antibodies were used and membranes were developed with the ECL Plus detection reagent (Pierce, Rockford, Ill.). Images were acquired with a digital camera-based imaging system (ChemiDoc, Biorad) and analyzed with Quantity One software (Bio-Rad). […]

[2] = test system: Keap1; assay: Keap1 levels in hippocampal HT22 cells; type: cell-based; conditions: 30 min, BDNF 100 ng/ml or 7,8-DHF 10 μM
Description: as §1, with “A similar protocol was used for cell nuclear and cytosolic extracts.” left out
(§2) 40 μg of nuclear or cytosolic protein (or 20 μg for cell experiments) was resolved by SDS-polyacrylamide gel electrophoresis in a 12% polyacrylamide gel. […] Protein bands were quantified with Odyssey® software (version 3.0, LI-COR Biosciences). […] Images were acquired with a digital camera-based imaging system (ChemiDoc, Biorad) and analyzed with Quantity One software (Bio-Rad). […]

[3] = test system: Nrf2; assay: Superfusion of the hippocampus, Nrf2 levels; set-up: species or system Sprague-Dawley rats; conditions: 7,8-DHF 10 μM, 1 h; for cytosolic Nrf2 concentration: perfused hippocampi
Description: as §1
40 μg of nuclear or cytosolic protein (or 20 μg for cell experiments) was resolved by SDS-polyacrylamide gel electrophoresis in a 12% polyacrylamide gel. The bands were transferred to nitrocellulose or PVDF membranes (Invitrogen, France) for immunoblotting according to standard procedures. We used the following antibody dilutions: 1:250 for rabbit polyclonal antibodies against Nrf2 (Santa Cruz Biotechnology, France), 1:500 for rabbit polyclonal antibodies against Keap1 (Santa Cruz Biotechnology) and 1:5000 for rabbit polyclonal antibodies against aconitase 2 (Gene Tex, France). A dilution of 1:10,000 was used for the fluorescent IRDye® 800CW secondary antibody (ScienceTec, Paris, France). […] Protein bands were quantified with Odyssey® software (version 3.0, LI-COR Biosciences). […] Images were acquired with a digital camera-based imaging system (ChemiDoc, Biorad) and analyzed with Quantity One software (Bio-Rad). […]

[4] = test system: Keap1; assay: Superfusion of the hippocampus, Keap1 levels; set-up: species or system Sprague-Dawley rats; conditions: perfused hippocampi of DF and control rats; 7,8-DHF 10 μM, 1 h
Description: as §1, with “A similar protocol was used for cell nuclear and cytosolic extracts.” left out
as §2

[5] = intracerebroventricular administration; cited from earlier work
[6] = test system: patients suffering of bipolar depression; conditions: cited from earlier work

O=c1cc(-c2ccccc2)oc2c(O)c(O)ccc12 [7,8-DHF, 7,8-dihydroxyflavone]
nuclear Nrf2 translocation [1]: induced a marked increase; also recorded: produced similar effects on Nrf2
Keap1 levels [2]: not affected
nuclear Nrf2 translocation ([3]; perfused hippocampi of defeated (DF, D5) and control rats): induced a marked translocation of Nrf2 to the nuclear compartment; also recorded: induced Nrf2 translocation to the nucleus to the same level in defeated and control animals
cytosolic Nrf2 concentration ([3]; DF animals (D5)): induced a decrease in cytosolic Nrf2 concentration; also recorded: decrease in cytosolic Nrf2 levels
cytosolic Nrf2 concentration ([3]; control (C) animals): tendency for this concentration to decrease
Keap1 concentration [4]: no change in Keap1 concentration
neuroanatomical alterations (hippocampal CA3 dendritic retraction, increase of amygdala dendritic length) [5]: can prevent neuroanatomical alterations
occurrence of depressive profile [5]: prevent

CC(=O)N[C@@H](CS)C(=O)O [N-acetylcysteine (NAC), N-acetylcysteine]
depression scores [6]: induced a robust decrement in depression scores

O=c1c(O)c(-c2ccc(O)c(O)c2)oc2cc(O)cc(O)c12 [quercetin]
nuclear Nrf2 translocation [1]: induces a translocation of Nrf2 to the nucleus
Nrf2 cytosolic fraction [1]: decreased

B1: BDNF: brain derived neurotrophic factor, added to HT22 cell medium at 100 ng/ml (protein, UniProt P23560 19-247, looked up)
Neurotrophic factor BDNF …: APMKEANIRGQGGLAYPGVRTHGTLESVNGPKAGSRGLTSLADTFEHVIEELLDEDQKVRPNEENNKDADLYTSRVMLSSQVPLEPPLLFLLEEYKNYLDAANMSMRVRRHSDPARRGELSVCDSISEWVTAADKKTAVDMSGGTVTVLEKVPVSKGQLKQYFYETKCNPMGYTKEGCRGIDKRHWNSQCRTTQSYVRALTMDSKKRIGWRFIRIDTSCVCTLTIKRGR
nuclear Nrf2 translocation [1]: induced a marked increase; also recorded: produced similar effects on Nrf2
Keap1 levels [2]: not affected
